How the values were obtained:
Type in all cases: cell-based
[1] = target: T1, Glucocorticoid Receptor (Homo sapiens, UniProt P04150); experiment: GR (ARE)2-Luc luciferase reporter gene assay; conditions: HQ extract 0 ×10^−6 g/mL (hormone only)
T1 construct: expressed in transfected cells
T1 sequence (P04150 1-777): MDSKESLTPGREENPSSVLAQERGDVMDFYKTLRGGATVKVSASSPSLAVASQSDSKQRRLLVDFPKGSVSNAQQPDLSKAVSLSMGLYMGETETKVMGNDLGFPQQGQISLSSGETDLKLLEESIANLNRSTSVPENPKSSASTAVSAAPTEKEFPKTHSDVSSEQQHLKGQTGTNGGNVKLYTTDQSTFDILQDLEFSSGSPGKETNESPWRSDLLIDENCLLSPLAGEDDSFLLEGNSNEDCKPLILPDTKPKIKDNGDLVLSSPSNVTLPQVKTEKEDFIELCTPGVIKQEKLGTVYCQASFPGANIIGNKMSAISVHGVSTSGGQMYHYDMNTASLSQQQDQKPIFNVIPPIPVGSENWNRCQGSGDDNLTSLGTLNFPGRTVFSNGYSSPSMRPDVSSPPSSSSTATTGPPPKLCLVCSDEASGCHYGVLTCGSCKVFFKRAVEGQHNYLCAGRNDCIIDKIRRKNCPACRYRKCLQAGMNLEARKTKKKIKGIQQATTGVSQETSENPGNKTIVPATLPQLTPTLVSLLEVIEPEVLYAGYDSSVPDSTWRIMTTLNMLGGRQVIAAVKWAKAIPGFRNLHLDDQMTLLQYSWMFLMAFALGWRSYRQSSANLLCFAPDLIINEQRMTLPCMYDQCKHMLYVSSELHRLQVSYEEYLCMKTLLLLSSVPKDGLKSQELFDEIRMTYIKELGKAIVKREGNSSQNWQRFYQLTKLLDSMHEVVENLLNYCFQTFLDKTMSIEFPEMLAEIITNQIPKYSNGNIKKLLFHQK
Description: (§1) The capacity of HQ extract to activate other steroid receptors, namely AR, PR, GR, ERα and ERβ was examined. […] The (ARE)2-Luc plasmid consist of two repeats of Androgen Response Element (ARE) cloned upstream of the Luciferase Reporter gene in a pGL3-Basic vector (Promega).
(§2) AR, PR, GR and ERα and […] were determined by comparing luciferase activity in test cells with control cells exposed to vehicle (i.e., ethanol or methanol) only, analogous to the determination of PPAR activity as described in the previous examples.

[2] = target: T2, PPARγ (Homo sapiens, UniProt P37231); experiment: Chimeric Gal4DBD-PPARγLBD receptor / UASg-luciferase reporter gene assay in HeLa cells
T2 construct: expressed in transfected cells; host or cells: HeLa
T2 sequence (P37231 238-503 limits assumed): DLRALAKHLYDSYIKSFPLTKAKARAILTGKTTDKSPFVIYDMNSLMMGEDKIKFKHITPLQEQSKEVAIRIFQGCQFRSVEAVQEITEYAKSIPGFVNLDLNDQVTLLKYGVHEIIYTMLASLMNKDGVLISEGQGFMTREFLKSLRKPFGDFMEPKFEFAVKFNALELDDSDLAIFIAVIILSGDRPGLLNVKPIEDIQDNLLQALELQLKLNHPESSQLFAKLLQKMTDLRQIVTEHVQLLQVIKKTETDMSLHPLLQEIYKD
Text: (§3) In an example of such a reporter gene assay, a plasmid containing chimeric Ga14DBD-PPARLBD receptor cDNA was constructed by excising the ligand binding domain (LBD) of full length PPARγ and PPARα and ligating the resulting fragments in frame to the Ga14-DNA binding domain (DBD) of Saccharomyces cerevisiae in a pM vector (Clontech). Specifically, to construct Ga14DBD-PPARγLBD plasmid, pSG5 expression vector (Stratagene) containing full length PPARγ was excised with Rsa I and blunt ligated to Hind III site of pMGa14DBD expression plasmid (Clontech). To construct Ga14DBD-PPARαLBD plasmid, pSG5 expression vector (Stratagene) containing full length PPARα was excised with BstU I and BamH I and blunt-end ligated in frame to BamH I site of pMGa14DBD expression plasmid (Clontech). […] Ga14 DBD binds very strongly to the exogenous UASg promoter, thereby giving rise to a sensitive and specific assay. To measure PPARγ and PPARα agonist activity, HeLa cells were grown in 24-well microtiter plates and then transiently co-transfected with the two plasmids (chimeric PPAR receptor and UASg reporter gene) using Lipofectamine (Invitrogen). […] Concurrently, cells exposed to known PPAR ligands served as positive controls. Replicate wells, exposed to the vehicle solvent (i.e., ethanol or methanol) in which herbal extracts were dissolved, were used as negative controls. After the 40 hr incubation period, cells were rinsed with phosphate buffered saline (PBS), lysis buffer was added, and cell lysates were collected for measurement of luciferase activity using a luminometer. […] All data points are in triplicate. The data points represent the mean of triplicate wells. Luciferase activity in such an assay accurately reflects the activity of any ligands on PPARγ or PPARα.

[3] = target: T3, PPARα (Homo sapiens, UniProt Q07869); experiment: Chimeric Gal4DBD-PPARαLBD receptor / UASg-luciferase reporter gene assay in HeLa cells
T3 construct: expressed in transfected cells; host or cells: HeLa
T3 sequence (Q07869 239-466 limits assumed): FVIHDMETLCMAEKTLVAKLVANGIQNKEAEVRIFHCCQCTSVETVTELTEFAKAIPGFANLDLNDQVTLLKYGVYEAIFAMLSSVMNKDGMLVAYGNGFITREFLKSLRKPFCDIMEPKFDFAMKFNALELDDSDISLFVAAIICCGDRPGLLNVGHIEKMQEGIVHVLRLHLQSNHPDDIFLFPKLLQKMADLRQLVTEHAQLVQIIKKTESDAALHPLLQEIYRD
Text: as §3

[4] = target: T4, Progesterone Receptor (Homo sapiens, UniProt P06401); experiment: PR (ARE)2-Luc luciferase reporter gene assay; conditions: with progesterone 10×10^−6M
T4 construct: expressed in transfected cells; host or cells: HeLa (named for the formononetin and daidzein experiments)
T4 sequence (P06401 1-933): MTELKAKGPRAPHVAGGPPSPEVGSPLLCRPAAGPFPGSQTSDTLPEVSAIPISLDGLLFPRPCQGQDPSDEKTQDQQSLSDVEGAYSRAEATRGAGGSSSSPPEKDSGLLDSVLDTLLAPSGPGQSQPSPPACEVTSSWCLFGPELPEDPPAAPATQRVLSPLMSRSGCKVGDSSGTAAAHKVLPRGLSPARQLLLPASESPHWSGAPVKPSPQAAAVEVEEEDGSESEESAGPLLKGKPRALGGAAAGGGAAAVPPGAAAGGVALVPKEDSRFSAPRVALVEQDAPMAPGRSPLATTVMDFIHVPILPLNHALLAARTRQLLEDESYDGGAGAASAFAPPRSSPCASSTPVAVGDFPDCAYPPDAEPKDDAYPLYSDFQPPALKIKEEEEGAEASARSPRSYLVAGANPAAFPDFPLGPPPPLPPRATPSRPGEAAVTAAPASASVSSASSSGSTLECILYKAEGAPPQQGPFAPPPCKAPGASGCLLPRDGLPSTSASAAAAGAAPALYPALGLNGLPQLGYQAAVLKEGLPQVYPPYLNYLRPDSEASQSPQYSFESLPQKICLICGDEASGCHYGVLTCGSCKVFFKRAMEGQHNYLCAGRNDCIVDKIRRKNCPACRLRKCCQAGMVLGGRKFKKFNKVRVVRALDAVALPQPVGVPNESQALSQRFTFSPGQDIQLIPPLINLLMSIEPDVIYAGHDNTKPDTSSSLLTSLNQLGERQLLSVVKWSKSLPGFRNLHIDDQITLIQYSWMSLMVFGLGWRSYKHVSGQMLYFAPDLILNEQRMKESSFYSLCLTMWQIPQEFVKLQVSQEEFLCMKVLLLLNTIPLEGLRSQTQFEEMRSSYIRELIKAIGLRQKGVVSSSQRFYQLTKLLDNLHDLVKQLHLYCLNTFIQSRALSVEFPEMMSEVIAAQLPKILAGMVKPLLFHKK
Description: as §1, §2

[5] = target: T5, human estrogen receptor ERα (Homo sapiens, UniProt P03372); experiment: ERα MMTV-ERE-LUC reporter gene assay in HeLa cells
T5 construct: expressed in transfected cells; host or cells: HeLa
T5 sequence (P03372 1-595): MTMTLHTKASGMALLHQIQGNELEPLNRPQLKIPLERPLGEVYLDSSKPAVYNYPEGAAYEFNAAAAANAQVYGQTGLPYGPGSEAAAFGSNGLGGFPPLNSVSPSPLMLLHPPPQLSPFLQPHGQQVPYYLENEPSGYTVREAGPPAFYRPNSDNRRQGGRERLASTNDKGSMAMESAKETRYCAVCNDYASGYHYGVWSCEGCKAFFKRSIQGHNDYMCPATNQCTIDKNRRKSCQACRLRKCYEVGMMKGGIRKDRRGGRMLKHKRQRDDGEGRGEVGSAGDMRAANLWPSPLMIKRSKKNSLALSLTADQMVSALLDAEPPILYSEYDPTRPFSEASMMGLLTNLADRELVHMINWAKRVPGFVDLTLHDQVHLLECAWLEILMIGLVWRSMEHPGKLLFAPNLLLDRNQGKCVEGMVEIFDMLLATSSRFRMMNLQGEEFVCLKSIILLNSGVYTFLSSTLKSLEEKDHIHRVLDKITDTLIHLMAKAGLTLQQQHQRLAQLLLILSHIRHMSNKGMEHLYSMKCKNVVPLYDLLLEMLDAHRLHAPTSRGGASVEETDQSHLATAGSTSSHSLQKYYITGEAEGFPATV
Description: (§4) ERα and ERβ activity were assayed using plasmids encoding either ERα or ERβ co-transfected with the ERE-LUC reporter gene. To assay estrogen receptor agonist activity, HeLa cells were transiently co-transfected with two plasmids (Tcherepanova, et al., 2000) using Lipofectamine. The first plasmid comprised DNA encoding human estrogen receptor (either ERα or ERβ), and the second plasmid comprised an estrogen-driven reporter system comprising: a luciferase reporter gene (LUC) whose transcription is under the control of upstream regulatory elements comprising 4 copies of the vitellogenin estrogen response element (ERE) cloned into the Mouse Mammary Tumor Virus (MMTV) promoter (the full name of the reporter system being ‘MMTV-ERE-LUC’).
as §2

[6] = target: T6, human estrogen receptor ERβ (Homo sapiens, UniProt Q92731); experiment: ERβ MMTV-ERE-LUC reporter gene assay in HeLa cells
T6 construct: expressed in transfected cells; host or cells: HeLa
T6 sequence (Q92731 whole entry): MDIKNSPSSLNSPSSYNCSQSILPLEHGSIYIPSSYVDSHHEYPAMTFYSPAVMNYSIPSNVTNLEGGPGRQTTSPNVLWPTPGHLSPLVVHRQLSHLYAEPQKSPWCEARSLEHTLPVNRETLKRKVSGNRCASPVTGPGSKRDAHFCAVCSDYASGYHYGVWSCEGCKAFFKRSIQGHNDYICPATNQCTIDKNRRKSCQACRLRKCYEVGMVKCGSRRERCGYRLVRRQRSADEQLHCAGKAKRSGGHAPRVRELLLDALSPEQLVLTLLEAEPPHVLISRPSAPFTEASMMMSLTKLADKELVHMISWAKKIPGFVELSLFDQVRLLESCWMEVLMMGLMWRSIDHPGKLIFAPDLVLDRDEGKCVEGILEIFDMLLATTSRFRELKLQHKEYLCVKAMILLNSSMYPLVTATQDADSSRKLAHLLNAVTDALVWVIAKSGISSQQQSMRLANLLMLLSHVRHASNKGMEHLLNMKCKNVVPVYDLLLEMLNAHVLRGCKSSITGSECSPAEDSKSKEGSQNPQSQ
Description: as §4, §2

Structure (SMILES)	Luciferase activity (Fold ± SE) Glucocorticoid Receptor/Hydrocortisone (1 × 10^−9 M) [1]	PPARγ activity when added to pioglitazone compared with pioglitazone alone ([2]; 3 to 30 ×10^−6 g/mL + pioglitazone 30×10^−6M)	increase of PPARγ activity, up to ([2]; Table 8)	increase of PPARα activity, up to ([3]; Table 8)	increase of the activity of maximal doses of PPARα agonist ([3]; with WY14643 30×10^−6M)	increase of the activity of maximal doses of PR agonist [4]	ERα activity comparable to % maximal activity of Estradiol ([5]; 30×10^−6 g/ml)	increase of the activity of maximal doses of estradiol on ERα ([5]; with estradiol 1×10^−9M)	effect on ERβ activity of estradiol ([6]; 1 to 30×10^−6 g/mL + estradiol 1×10^−9M)	ERβ activity comparable to % maximal activity of Estradiol ([6]; 30×10^−6 g/ml)
C[C@]12CCC(=O)C=C1CC[C@@H]1[C@@H]2[C@@H](O)C[C@@]2(C)[C@H]1CC[C@]2(O)C(=O)CO [Hydrocortisone, hydrocortisone]	11014 ± 285 Fold									
COc1ccc(-c2coc3cc(O)ccc3c2=O)cc1 [formononetin, 7-Hydroxy-4′-methoxyisoflavone]		no different than that observed with pioglitazone alone	up to 6 fold	≤ 10 fold	4.4 fold	1.8 fold	comparable to maximal activity of Estradiol	3.2 fold	did not inhibit or augment the activity of estradiol alone	~400%

— patent US20050118290A1, “Compositions and method for treatment of steroid/nuclear receptor-mediated diseases” (University of Singapore, priority 2003, published 2005)
